We go through one compound from patent US9029386B2, “Pyridine derivatives useful as kinase inhibitors” (YM Biosciences Australia Pty Ltd, priority 2006, dated 2015).

Each structure is given as a SMILES string. Where only a bound is given, the exact number is not on record here.

The test addresses T1, FLT-3 tyrosine kinase (Homo sapiens, UniProt P36888).
T1 construct: purchased Upstate Cell Signalling Solutions, CA, USA 14-500
T1 sequence (P36888 27-993): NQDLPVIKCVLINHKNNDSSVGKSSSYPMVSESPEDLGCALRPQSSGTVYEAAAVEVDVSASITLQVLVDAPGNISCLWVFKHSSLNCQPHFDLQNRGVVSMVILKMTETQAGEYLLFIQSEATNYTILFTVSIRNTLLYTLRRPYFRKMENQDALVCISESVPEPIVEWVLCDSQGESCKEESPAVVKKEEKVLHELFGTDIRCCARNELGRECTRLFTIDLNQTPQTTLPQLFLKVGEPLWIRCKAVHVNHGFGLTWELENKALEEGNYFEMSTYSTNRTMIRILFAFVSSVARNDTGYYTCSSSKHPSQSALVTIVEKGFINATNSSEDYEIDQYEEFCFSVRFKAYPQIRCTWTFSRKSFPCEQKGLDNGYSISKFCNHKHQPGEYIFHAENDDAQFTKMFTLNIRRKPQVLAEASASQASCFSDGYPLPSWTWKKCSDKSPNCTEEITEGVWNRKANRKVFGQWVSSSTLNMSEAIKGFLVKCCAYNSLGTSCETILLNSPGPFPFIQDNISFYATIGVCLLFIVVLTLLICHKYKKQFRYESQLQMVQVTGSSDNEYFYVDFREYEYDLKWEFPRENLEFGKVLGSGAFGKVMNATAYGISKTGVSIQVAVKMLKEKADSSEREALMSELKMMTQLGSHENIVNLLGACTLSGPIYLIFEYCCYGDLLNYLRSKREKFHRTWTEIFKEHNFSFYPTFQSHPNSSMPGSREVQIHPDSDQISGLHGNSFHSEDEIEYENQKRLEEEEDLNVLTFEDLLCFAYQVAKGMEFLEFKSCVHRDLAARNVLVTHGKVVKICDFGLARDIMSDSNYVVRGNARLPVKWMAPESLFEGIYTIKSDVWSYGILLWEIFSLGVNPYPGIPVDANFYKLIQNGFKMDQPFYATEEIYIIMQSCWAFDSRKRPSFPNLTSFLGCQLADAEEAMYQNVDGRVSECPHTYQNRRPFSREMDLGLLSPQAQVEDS
Briefly: Alphascreen protein tyrosine kinase assay, FLT-3. The test is classed as biochemical. The note with it: read-out: Flt3. A general note: Bead proximity is the source of the signal in Alpha formats.

Consider `Cc1cccc(C(=O)Nc2cccc([C@H](C)Nc3cncc(-c4ccc(S(N)(=O)=O)cc4)n3)c2)c1` [Compound 77], for which the IC50 was greater than 10 µM.
